Measurements taken from ChEMBL document CHEMBL5550203, “A Comprehensive In Vitro Characterization of a New Class of Indole-Based Compounds Developed as Selective Haspin Inhibitors” (J Med Chem, 2024).

Assays:
physchem [1] = details: simulated intestinal fluid
Description: Chemical stability in stimulated intestinal fluid assessed as compound remaining at 10 uM measured upto 120 mins by LC-MS analysis

physchem [2] = details: simulated gastric fluid
Description: Chemical stability in stimulated gastric fluid assessed as compound remaining at 10 uM measured upto 120 mins by LC-MS analysis

[3] = rat, plasma, 2 h, 10 µM
Description: Stability in rat plasma at 10 uM measured upto 120 mins by LC-MS analysis

[4] = human, microsomes, 1 h
[5] = human, plasma, 2 h, 10 µM
Description: Stability in human plasma at 10 uM measured upto 120 mins by LC-MS analysis

remaining at 2 h, 10 µM (physchem [1]): > 80% | remaining at 2 h, 10 µM (physchem [2]): > 80% | Stability [3]: Stable | Stability [4]: Stable | Stability [5]: Stable
Compound: Cc1ccc(NC(=O)c2ccc3c(c2)c(CNCCN2CCNCC2)cn3C)cc1C
